≈ marks a conversion by molar mass, not a printed value.
Columns and labels:
[1] = tested on: MCF7; experiment: Cytotoxicity against human MCF7 cells after 48 hrs by MTT assay; format: functional, cell-based
[2] = tested on: A549; experiment: Cytotoxicity against human A549 cells after 48 hrs by MTT assay; format: functional, cell-based
[3] = tested on: SH-SY5Y; experiment: Cytotoxicity against human SH-SY5Y cells after 48 hrs by MTT assay; format: functional, cell-based
[4] = tested on: NB-4; experiment: Cytotoxicity against human NB4 cells after 48 hrs by MTT assay; format: functional, cell-based; settings: NB-4, 48 h
[5] = tested on: MCF7; experiment: Cytotoxicity against human MCF7 cells after 72 hrs by MTT assay; format: functional, cell-based; settings: MCF7, 72 h
[6] = Cytotoxicity against human KATO III cells after 72 hrs by MTT assay; format: functional, cell-based
[7] = tested on: PC-3; experiment: Cytotoxicity against human PC3 cells after 48 hrs by MTT assay; format: functional, cell-based; settings: PC-3, 48 h
[8] = tested on: HepG2; experiment: Cytotoxicity against human HepG2 cells by MTT assay; format: functional, cell-based
[9] = tested on: MCF7; experiment: Cytotoxicity against human MCF7 cells after 48 hrs by sulforhodamine B assay; format: functional, cell-based
[10] = tested on: SF-268; experiment: Cytotoxicity against human SF268 cells after 48 hrs by sulforhodamine B assay; format: functional, cell-based
[11] = tested on: HepG2; experiment: Cytotoxicity against human HepG2 cells after 48 hrs by sulforhodamine B assay; format: functional, cell-based
[12] = tested on: NCI-H460; experiment: Cytotoxicity against human NCI-H460 cells after 48 hrs by sulforhodamine B assay; format: functional, cell-based
[13] = tested on: Raji; experiment: Cytotoxicity against human Raji cells after 72 hrs by MTT assay; format: functional, cell-based
[14] = tested on: HepG2; experiment: Cytotoxicity against human HepG2 cells after 72 hrs by MTT assay; format: functional, cell-based; settings: HepG2, 72 h
[15] = tested on: HL-60; experiment: Cytotoxicity against human HL60 cells after 72 hrs by MTT assay; format: functional, cell-based; settings: HL-60, 72 h
[16] = tested on: A549; experiment: Cytotoxicity against human A549 cells after 72 hrs by MTT assay; format: functional, cell-based; settings: A549, 72 h
[17] = tested on: L5178Y; experiment: Cytotoxicity against mouse L5178Y cells by MTT assay; format: functional, cell-based
[18] = tested on: NCI-H446; experiment: Cytotoxicity against human NCI-H446 cells by MTS assay; format: functional, cell-based
[19] = tested on: SH-SY5Y; experiment: Cytotoxicity against human SH-SY5Y cells by MTT assay; format: functional, cell-based
[20] = tested on: L02; experiment: Cytotoxicity against human L02 cells by MTS assay; format: cell-based
[21] = tested on: A549; experiment: Cytotoxicity against human A549 cells by MTT assay; format: functional, cell-based
[22] = Homo sapiens, MCF7, 48 h, read-out: IC50
[23] = Homo sapiens, A549, 48 h, read-out: IC50

With `COC(=O)CCCN1C(=O)[C@@]23O[C@@]4(O)[C@@]5(O)[C@@H]2[C@@H](Cc2cccc1c23)C(C)(C)N5C(=O)[C@]4(O)[C@@H](C)O` the IC50 [1, 22] was less than 10 µM, the IC50 [2, 23] was less than 10 µM and the IC50 [3] was less than 10 µM. It also gave an IC50 [4] of less than 10 µM.
`COc1cc(O)c2c(=O)cc(C)oc2c1[C@@H]1C[C@@H](OC)C(=O)O1` gave an IC50 [5] of 19.3 µM and an IC50 [6] of 23.3 µM.
Work on `C[C@@H](O)[C@@]1(O)C(=O)N2C(C)(C)[C@@H]3Cc4cccc5c4[C@@]4(O[C@@]1(O)[C@@]2(O)[C@H]34)C(=O)N5C` yielded an IC50 [7] of 1.2 to 4.2 µM, an IC50 [1, 22] of 1.2 to 4.2 µM and an IC50 [2, 23] of 1.2 to 4.2 µM. For the same compound, the IC50 [3] was 1.2 to 4.2 µM and the IC50 [4] was 1.2 to 4.2 µM.
Compound `CCCCC[C@@H]1CC[C@H](C)CCCCC(=O)N[C@@H](Cc2ccc(OCC=C(C)C)cc2)C(=O)O1` has an IC50 [8] of 36.6 µM.
`C/C=C(\C)C(=O)[C@@H](C)c1cc(O)c2c(c1O)O[C@]1(C)CC[C@H]3O[C@@H](C(C)(C)O)CC[C@]3(C)[C@H]1C2=O` gave an IC50 ([9]; Homo sapiens, MCF7, 48 h) of 6.4 to 42.6 µM, an IC50 ([10]; Homo sapiens, SF-268, 48 h) of 6.4 to 42.6 µM and an IC50 ([11]; Homo sapiens, HepG2, 48 h) of 6.4 to 42.6 µM. It also gave an IC50 ([12]; Homo sapiens, NCI-H460, 48 h) of 6.4 to 42.6 µM.
With `Cc1cc(O)c2c(c1)C(=O)c1c(c(O)cc(O)c1-c1c(O)cc(O)c3c1C(=O)c1cc(CC(C)O)cc(O)c1C3=O)C2=O` (centres undefined) the IC50 [1, 22] was 20.8 µg/mL.
With `CCC/C=C/[C@H]1C=CC(=O)[C@H](O)[C@H]1C(=O)C(C)O` (some centres undefined) the IC50 ([9]; Homo sapiens, MCF7, 48 h) was 15.7 µM, the IC50 ([10]; Homo sapiens, SF-268, 48 h) was 40.5 µM and the IC50 ([11]; Homo sapiens, HepG2, 48 h) was 46.8 µM. For the same compound, the IC50 ([12]; Homo sapiens, NCI-H460, 48 h) was 36.4 µM.
In the case of `CCC(=O)Cc1c(OC)cc(=O)oc1CO`, the IC50 [13] is reported as 1 to 26.8 µg/mL (≈ 4.42 to 118 µM), the IC50 [14] is reported as 1 to 26.8 µg/mL and the IC50 [15] is reported as 1 to 26.8 µg/mL (≈ 4.42 to 118 µM). For the same compound, the IC50 [5] was 1 to 26.8 µg/mL and the IC50 [16] was 1 to 26.8 µg/mL.
`COc1ccc2c(c1C/C=C(\C)CO)C=C(CO)OC2` gave an IC50 [7] of 2.8 to 8.8 µM, an IC50 [1, 22] of 2.8 to 8.8 µM and an IC50 [2, 23] of 2.8 to 8.8 µM. The IC50 [3] was 2.8 to 8.8 µM and the IC50 [4] was 2.8 to 8.8 µM.
`CC(=O)Cc1cc2c(CCCO)cc(O)cc2c(=O)o1` showed an IC50 [7] of 2.8 to 8.8 µM, an IC50 [1, 22] of 2.8 to 8.8 µM and an IC50 [2, 23] of 2.8 to 8.8 µM. The IC50 [3] was 2.8 to 8.8 µM and the IC50 [4] was 2.8 to 8.8 µM.
Compound `C[C@H]1[C@H](O)CCC(C)(C)[C@@]12CC=C(C(=O)O)CC2` has an IC50 [6] of 35 µM.
`CC[C@H](C)C(=O)[C@@H](C)C1=CC(=O)C2=C(O[C@]3(C)CC[C@H]4O[C@@H](C(C)(C)O)CC[C@]4(C)C3=C2)C1=O` gave an IC50 ([9]; Homo sapiens, MCF7, 48 h) of 6.4 to 42.6 µM, an IC50 ([10]; Homo sapiens, SF-268, 48 h) of 6.4 to 42.6 µM and an IC50 ([11]; Homo sapiens, HepG2, 48 h) of 6.4 to 42.6 µM. It also gave an IC50 ([12]; Homo sapiens, NCI-H460, 48 h) of 6.4 to 42.6 µM.
`CC[C@@H](C)C[C@H](/C=C(\C)[C@H](O)[C@H](C)/C=C(\C)[C@H](O)[C@H](C)/C=C/[C@H](O)[C@H](C)/C=C(\C)C=O)CO` showed an IC50 [17] of 4.1 µM.
Compound `CN1C(=O)[C@]23O[C@]4(O)[C@@H](O)C(=O)N5C(C)(C)[C@H](Cc6cccc1c62)[C@H]3[C@@]54O` has an IC50 [7] of 1.2 to 4.2 µM, an IC50 [1, 22] of 1.2 to 4.2 µM and an IC50 [2, 23] of 1.2 to 4.2 µM. For the same compound, the IC50 [3] was 1.2 to 4.2 µM and the IC50 [4] was 1.2 to 4.2 µM.
With `COc1cc(=O)oc(CO)c1[C@H](C)O` the IC50 [13] was 1 to 26.8 µg/mL (≈ 5 to 134 µM), the IC50 [14] was 1 to 26.8 µg/mL and the IC50 [15] was 1 to 26.8 µg/mL (≈ 5 to 134 µM). The IC50 [5] was 1 to 26.8 µg/mL and the IC50 [16] was 1 to 26.8 µg/mL.
Work on `Cc1cc2c(c3c1C(=O)Oc1c(C)c4c(c(O)c1O3)C(=O)OC4)CO2` yielded an IC50 [18] of 63 µM.
In the case of `CC(=O)OCC1=C[C@@H]2[C@H](CCO)[C@@]1(C)CCCC2(C)C`, the IC50 ([1]; mcf7) is reported as 19.1 µM and the IC50 ([2]; a549) is reported as 33.2 µM.
For `COC(=O)[C@]1(Cc2ccc(OC)c(CC=C(C)C)c2)OC(=O)C(O)=C1c1ccccc1`, the IC50 [8] was less than 10 µM, the IC50 [19] was less than 10 µM and the IC50 [20] was less than 10 µM.
Work on `COC(=O)[C@]1(Cc2cc(CC=C(C)C)c(O)c(OC)c2)OC(=O)C(O)=C1c1ccc(O)cc1` yielded an IC50 [8] of 3.6 µM and an IC50 [20] of 4.2 µM.
For `COc1cc(O)c2c(=O)c3c(O)ccc(C(CO)C(O)CO)c3oc2c1O` (centres undefined), the IC50 [21] was 3.6 µM.
`C/C1=C\C(=O)OC[C@]23CCC(C(=O)O)=C[C@H]2O[C@@H]2CC(OC(=O)/C=C\C=C\[C@H]([C@H](C)O)OCC1)[C@@]3(C)[C@]21CO1` (some centres undefined) showed an IC50 ([9]; mcf7) of 0.17 µM, an IC50 ([10]; sf-268) of 0.751 µM and an IC50 ([11]; hepg2) of 0.38 µM. The IC50 ([12]; nci-h460) was 0.36 µM.
`COc1cc(OC)c2c(c1CC=C(C)C)C[C@@H](C)OC2=O` showed an IC50 [8] of 9.4 µM and an IC50 [19] of 8.5 µM.
In the case of `COc1c(O)cc2c(c1CC=C(C)C)C[C@@H](C)OC2=O`, the IC50 [19] is reported as 8.8 µM.
`CC1=C2C(=C[C@H](O)C(O)=C2O)[C@H](C)[C@@H](C)O1` showed an IC50 [14] of 35.7 µM and an IC50 [16] of 23.7 µM.
With `COC1=CC(=O)OC2C1[C@H](O)CO[C@H]2O` (some centres undefined) the IC50 [13] was 1 to 26.8 µg/mL (≈ 4.63 to 124 µM), the IC50 [14] was 1 to 26.8 µg/mL and the IC50 [15] was 1 to 26.8 µg/mL (≈ 4.63 to 124 µM). It also gave an IC50 [5] of 1 to 26.8 µg/mL and an IC50 [16] of 1 to 26.8 µg/mL.
Work on `CC[C@H](C)c1[nH]c2c(c1C)C(=O)C1=C(C2=O)[C@@H](O)[C@@H]2[C@@]3(C)CC[C@H](C(C)(C)O)O[C@@H]3CC[C@@]2(C)O1` yielded an IC50 ([9]; Homo sapiens, MCF7, 48 h) of 6.4 to 42.6 µM, an IC50 ([10]; Homo sapiens, SF-268, 48 h) of 6.4 to 42.6 µM and an IC50 ([11]; Homo sapiens, HepG2, 48 h) of 6.4 to 42.6 µM. It also gave an IC50 ([12]; Homo sapiens, NCI-H460, 48 h) of 6.4 to 42.6 µM.
Compound `CC[C@H](C)C(=O)[C@@H](C)c1c(O)c2c(c3c1SCC(=O)N3)[C@@H](O)[C@@H]1[C@@]3(C)CC[C@H](C(C)(C)O)O[C@@H]3CC[C@@]1(C)O2` has an IC50 ([9]; Homo sapiens, MCF7, 48 h) of 6.4 to 42.6 µM, an IC50 ([10]; Homo sapiens, SF-268, 48 h) of 6.4 to 42.6 µM and an IC50 ([11]; Homo sapiens, HepG2, 48 h) of 6.4 to 42.6 µM. For the same compound, the IC50 ([12]; Homo sapiens, NCI-H460, 48 h) was 6.4 to 42.6 µM.
Work on `COC(=O)c1cccc2oc3cc(C)cc(O[C@@H]4O[C@H](CO)[C@@H](O)[C@H](O)[C@H]4O)c3c(=O)c12` yielded an IC50 [20] of 6.8 µg/mL.

From ChEMBL document CHEMBL4411258, “Novel natural compounds from endophytic fungi with anticancer activity” (Eur J Med Chem, 2018)
